Experiments:
5J8 Fab (LC:HC dimer) = test: Binding of 1 by fluorescence; set-up: species or system human; conditions: 1 at 1 μM
WIL-FL* [1] = test: FP artefact counterscreen (compounds added after 24 h of proteinase K treatment); assay type: biochemical, human; conditions: compound added after 24 h PK treatment; mean ± sd, n=3
Protocol: Secondly, to remove compounds that interfere with the FP measurement, the primary screen was repeated in triplicate but compounds were added after 24 h of proteinase K treatment (FIG. 1f). […] Bona fide hits should retain no FP beyond the low control.

WIL-FL = WIL-FL (Homo sapiens, UniProt P01721); test: PK proteolysis of unlabeled WIL-FL by SDS-PAGE; conditions: WIL-FL 10 μM, small molecule 100 μM, t=2 h
Protocol: The experiment in FIG. 1b measured simultaneous proteolysis of labeled and unlabeled LC by adding 20 nM WIL-FL* or JTO-FL* to 5 μM WIL-FL or JTO-FL, respectively. Fluorescein fluorescence images of the SDS-PAGE gels were recorded, after which the gels were Coomassie stained and imaged.

isolated λ3 C-domain = target: T1, isolated λ3 C-domain (Homo sapiens, UniProt P0DOY3); test: Fluorogenic coumarin titration; assay type: binding; conditions: 1 at 1 μM
T1 construct: made in house; host or cells: E. coli

[2] = target: human serum albumin (HSA) (Homo sapiens, UniProt P02768); test: Binding of 1 to albumin by fluorescence of 1
Source text: Therefore, kinetic stabilizer binding selectivity to FL LCs in preference to other plasma proteins is important to minimize the proportion of free FL LC. Albumin binds many small molecules in blood, typically with μM KD values.

WIL-FL* [3] = target: T2, WIL-FL* (Homo sapiens, UniProt P01721, K101C, form not given); test: Protease-coupled fluorescence polarization (PCFP) assay with proteinase K; conditions: secondary screen, mean ± sd, n=3; 6.75 μM compound; FP retention after 24 h at 22° C., normalized to high and low controls
WIL-FL C214S = test: Aggregation measured by SEC (disappearance of soluble dimeric LC); assay type: biochemical, human; conditions: 1 at 200 μM, LC 10 μM, pH 5, 37° C.; 0.066 hr^−1 in the absence of 1
Protocol: Aggregation. WIL C214S was dialyzed into ddH2O and filtered. Each 1 ml reaction contained 10 μM LC, ddH2O, 1% DMSO or 200 μM 1 in 1% DMSO, 150 mM NaCl, and ABC buffer (20 mM sodium acetate, 20 mM boric acid, 20 mM sodium citrate, pH 5 with HCl). Components are listed in the order they were added.
For analysis by SEC, reactions were set up in 2 ml tubes (Axygen #SCT-200-B-S) equipped with 4 mm stir bars. For each experiment, four reactions (two replicates each of vehicle and 1) were placed in a microfuge tube rack on top of the center of a stir plate. Reactions were stirred at approximately 2,000 rpm at 37° C., and 60 μl aliquots were removed at the indicated timepoints. Aliquots were centrifuged at 16,000 g at 4° C. for 5 min. 10 μl of the supernatant was injected into a Waters Acquity H-Class Bio-UPLC (ultra performance liquid chromatography) instrument equipped with a BEH200 SEC column (Waters, Milford, MA) equilibrated with PBS with 1 mM EDTA. At the end of an experiment, stir bars were washed for at least 3 h with 1 M NaOH, followed by at least 3 h with 6 M GuHCl at room temperature to remove residual aggregates.
Thus, we also quantified aggregation by measuring the rate of disappearance of soluble dimeric LC using size exclusion chromatography (SEC) (4). […]

WIL-FL* [4] = target: T2, WIL-FL*; test: PCFP assay with thermolysin; conditions: mean ± sd, n=3; 6.75 μM compound
Protocol: Thirdly, to remove molecules that inhibit proteinase K, the assay was repeated in triplicate using 100 nM thermolysin (Thermo). […] The additional metal ions were added to bind to ion-chelating small molecules and prevent them from inhibiting the metalloproteinase.
To identify and exclude molecules that interfered with FP measurements, the assay was repeated, but candidate stabilizers were not added until after 24 h of PK treatment (FIG. 1f). […] Thermolysin is a broad-spectrum metalloprotease that is likely not inhibited by compounds that inhibit PK, a serine protease.

5J8 Fab = test: PK proteolysis; assay type: biochemical, human

Sequence of human serum albumin (HSA) (P02768 25-609): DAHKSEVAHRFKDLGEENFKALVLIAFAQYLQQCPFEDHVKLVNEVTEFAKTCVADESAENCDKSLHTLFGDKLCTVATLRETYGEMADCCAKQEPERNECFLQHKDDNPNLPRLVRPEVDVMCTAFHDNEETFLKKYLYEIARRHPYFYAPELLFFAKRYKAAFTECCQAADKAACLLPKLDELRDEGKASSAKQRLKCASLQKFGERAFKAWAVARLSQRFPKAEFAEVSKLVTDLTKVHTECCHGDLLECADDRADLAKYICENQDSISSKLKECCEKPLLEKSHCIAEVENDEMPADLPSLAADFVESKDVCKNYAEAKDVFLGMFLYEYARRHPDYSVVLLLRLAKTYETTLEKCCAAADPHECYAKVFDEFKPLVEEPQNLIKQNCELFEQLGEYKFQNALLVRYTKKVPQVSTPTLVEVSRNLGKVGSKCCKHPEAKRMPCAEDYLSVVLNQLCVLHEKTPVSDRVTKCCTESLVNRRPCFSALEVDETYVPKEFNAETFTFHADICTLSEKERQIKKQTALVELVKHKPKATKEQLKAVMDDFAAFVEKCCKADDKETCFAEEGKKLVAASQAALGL

CCN(CC)c1ccc2c(C)cc(=O)oc2c1 [Compound 1, 7-diethylamino-4-methylcoumarin]
binding to 1 as measured by fluorescence (5J8 Fab (LC:HC dimer)): no apparent binding
Counterscreen activity (%) (WIL-FL* [1]): −8.07 ± 3.3%
protection of WIL-FL against PK proteolysis (WIL-FL): protects this FL LC against PK proteolysis
binding of 1 (isolated λ3 C-domain): No binding
Kd [2]: 37 ± 3 µM
affinity of 1 for albumin in the presence of diflunisal ([2]; 100 μM diflunisal): reduced
PK activity (%) (WIL-FL* [3]): 47.8 ± 0.7%
kagg (WIL-FL C214S): 0.011 h⁻¹
Thermolysin activity (%) (WIL-FL* [4]): 36.4 ± 2.0%
protection from PK proteolysis (5J8 Fab): does not protect

— US11945806B2, “Stabilization of amyloidogenic immunoglobulin light chains” (The Scripps Research Institute, priority 2019, dated 2024)
